According to patent US8497245B2, “Trypsin-like serine protease inhibitors, their preparation and use as selective inhibitors of the clotting factors IIa and Xa” (The Medicines Company (Leipzig) GmbH, priority 2010, dated 2013):

Target: T1, Human plasma kallikrein (h PK) (Homo sapiens, UniProt P03952)
T1 construct: purchased Enzyme Research Laboratories
Experiment: Inhibition of human plasma kallikrein (reference enzyme)
Format: biochemical
Details: S2302 substrate
Protocol: (§1) The inhibitory effect against the individual purified enzymes was determined in analogy to a previously disclosed method (Stürzebecher et al., J. Med. Chem., 40, 3091-3099 (1997)).
(§2) The release of p-nitroaniline (p-NA, the chromogenic product of the proteolytic activity), was determined by change in absorbance at 405 nm. The equilibrium rates were used to calculate the inhibitor/enzyme dissociation constant (Ki values) by parameter fitting in accordance with the rate equation for competitive inhibition using GraFit (version 4 from Erithacus). The results are reported as Ki values (nanomolar) in table 7 and are the average of at least three determinations.
(§3) Dissociation constants were calculated as described herein.

T1 sequence (P03952 391-638 limits assumed): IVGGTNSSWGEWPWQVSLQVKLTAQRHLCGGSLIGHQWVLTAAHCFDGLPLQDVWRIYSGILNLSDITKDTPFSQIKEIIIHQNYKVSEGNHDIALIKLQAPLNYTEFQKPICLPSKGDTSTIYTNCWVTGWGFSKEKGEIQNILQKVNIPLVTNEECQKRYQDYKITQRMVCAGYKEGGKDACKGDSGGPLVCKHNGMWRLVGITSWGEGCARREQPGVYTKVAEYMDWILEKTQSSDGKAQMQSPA
T1 sequence (P03952 20-390 partner limits assumed): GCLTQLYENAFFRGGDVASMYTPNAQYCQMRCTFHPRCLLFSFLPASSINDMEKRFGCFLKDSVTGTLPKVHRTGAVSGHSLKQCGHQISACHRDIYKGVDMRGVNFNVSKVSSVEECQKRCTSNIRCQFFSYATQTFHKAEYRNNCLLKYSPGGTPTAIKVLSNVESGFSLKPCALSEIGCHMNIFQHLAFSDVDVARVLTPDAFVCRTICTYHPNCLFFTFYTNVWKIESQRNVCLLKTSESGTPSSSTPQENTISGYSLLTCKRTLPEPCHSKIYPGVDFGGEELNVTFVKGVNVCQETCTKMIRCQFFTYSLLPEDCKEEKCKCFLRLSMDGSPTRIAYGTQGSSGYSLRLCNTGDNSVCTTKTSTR

| Ki | SMILES |
| --- | --- |
| 0.17 µM | CN1CCN(C(=O)C[C@@H](NS(=O)(=O)Cc2ccccc2)C(=O)N2CCC[C@H]2C(=O)NCc2cc(Cl)ccc2CN)CC1 [Compound 2.18] |
| 0.262 µM | CN(C(=O)C[C@@H](NS(=O)(=O)Cc1ccccc1)C(=O)N1CCC[C@H]1C(=O)NCc1cc(Cl)ccc1CN)C1CCOCC1 [Compound 2.4] |

Target: T2, Human tissue-type plasminogen activator (h t-PA) (Homo sapiens, UniProt P00750)
T2 construct: purchased Boehringer Ingelheim Actilyse
T2 sequence (P00750 36-562): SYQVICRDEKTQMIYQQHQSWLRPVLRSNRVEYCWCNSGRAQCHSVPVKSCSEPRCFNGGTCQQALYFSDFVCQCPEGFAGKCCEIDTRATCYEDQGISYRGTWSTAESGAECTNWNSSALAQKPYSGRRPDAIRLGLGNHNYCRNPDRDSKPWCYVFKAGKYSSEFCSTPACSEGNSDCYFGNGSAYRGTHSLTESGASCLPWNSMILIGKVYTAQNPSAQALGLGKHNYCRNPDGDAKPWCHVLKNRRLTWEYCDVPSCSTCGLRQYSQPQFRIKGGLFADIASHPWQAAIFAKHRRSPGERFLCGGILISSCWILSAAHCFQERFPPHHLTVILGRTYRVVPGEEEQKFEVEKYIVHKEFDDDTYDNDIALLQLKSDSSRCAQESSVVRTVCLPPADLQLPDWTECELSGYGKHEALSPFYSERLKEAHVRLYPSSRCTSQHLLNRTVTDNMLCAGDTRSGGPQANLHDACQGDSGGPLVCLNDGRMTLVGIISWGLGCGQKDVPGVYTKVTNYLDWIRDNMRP
Experiment: Inhibition of human tissue-type plasminogen activator (reference enzyme)
Format: biochemical
Details: Pefachrome tPA substrate; read-out: Ki h t-PA
Protocol: The equilibrium rates were used to calculate the inhibitor/enzyme dissociation constant (Ki values) by parameter fitting in accordance with the rate equation for competitive inhibition using GraFit (version 4 from Erithacus).
as §3

| Ki | SMILES |
| --- | --- |
| > 50 µM | CN1CCN(C(=O)C[C@@H](NS(=O)(=O)Cc2ccccc2)C(=O)N2CCC[C@H]2C(=O)NCc2cc(Cl)ccc2CN)CC1 [Compound 2.18] |
| > 100 µM | CN(C(=O)C[C@@H](NS(=O)(=O)Cc1ccccc1)C(=O)N1CCC[C@H]1C(=O)NCc1cc(Cl)ccc1CN)C1CCOCC1 [Compound 2.4] |

Target: T3, Human plasmin (h plasmin) (Homo sapiens, UniProt P00747)
T3 construct: purchased Calbiochem
T3 sequence (P00747 581-810 limits assumed): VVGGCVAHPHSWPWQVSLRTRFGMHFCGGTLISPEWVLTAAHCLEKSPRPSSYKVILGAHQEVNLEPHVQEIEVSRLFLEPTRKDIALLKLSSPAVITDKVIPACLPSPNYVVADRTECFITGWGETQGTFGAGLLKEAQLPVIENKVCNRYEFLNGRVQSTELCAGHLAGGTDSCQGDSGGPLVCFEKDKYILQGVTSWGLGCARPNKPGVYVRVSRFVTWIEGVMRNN
T3 sequence (P00747 97-580 partner limits assumed): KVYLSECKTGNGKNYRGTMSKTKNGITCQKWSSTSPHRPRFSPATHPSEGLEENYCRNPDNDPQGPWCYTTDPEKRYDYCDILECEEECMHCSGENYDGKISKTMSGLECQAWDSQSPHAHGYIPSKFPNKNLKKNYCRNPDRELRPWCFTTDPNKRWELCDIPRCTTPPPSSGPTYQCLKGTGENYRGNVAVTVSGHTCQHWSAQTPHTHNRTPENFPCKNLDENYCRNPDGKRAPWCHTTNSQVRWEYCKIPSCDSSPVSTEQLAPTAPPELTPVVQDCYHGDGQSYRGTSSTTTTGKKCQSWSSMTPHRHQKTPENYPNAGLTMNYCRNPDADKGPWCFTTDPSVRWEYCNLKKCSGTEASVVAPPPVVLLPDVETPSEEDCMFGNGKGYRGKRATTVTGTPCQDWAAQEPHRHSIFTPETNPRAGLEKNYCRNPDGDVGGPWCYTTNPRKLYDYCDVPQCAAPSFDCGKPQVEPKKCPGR
Experiment: Inhibition of human plasmin (reference enzyme)
Format: biochemical
Details: Chromozym PL substrate
Protocol: as §1, §2, §3

| Ki | SMILES |
| --- | --- |
| > 10 µM | CN1CCN(C(=O)C[C@@H](NS(=O)(=O)Cc2ccccc2)C(=O)N2CCC[C@H]2C(=O)NCc2cc(Cl)ccc2CN)CC1 [Compound 2.18] |
| > 20 µM | CN(C(=O)C[C@@H](NS(=O)(=O)Cc1ccccc1)C(=O)N1CCC[C@H]1C(=O)NCc1cc(Cl)ccc1CN)C1CCOCC1 [Compound 2.4] |

Target: T4, human factor IIa (human alpha-thrombin) (Homo sapiens, UniProt P00734)
T4 construct: human alpha-thrombin from Enzyme Research Laboratories; purchased Enzyme Research Laboratories
Experiment: Inhibition constants for human factor IIa, chromogenic substrate assay
Format: biochemical
Details: 25° C., Pefachrome tPA substrate, average of at least three determinations; read-out: Ki h FIIa
Protocol: as §1
(§4) 200 μL of TBS (0.05 M trishydroxymethylaminomethane; 0.154 M NaCl, 2% ethanol, pH 8.0)
as §2

| Ki | SMILES |
| --- | --- |
| 0.0015 µM | CN1CCN(C(=O)C[C@@H](NS(=O)(=O)Cc2ccccc2)C(=O)N2CCC[C@H]2C(=O)NCc2cc(Cl)ccc2CN)CC1 [Compound 2.18] |
| 0.00056 µM | CN(C(=O)C[C@@H](NS(=O)(=O)Cc1ccccc1)C(=O)N1CCC[C@H]1C(=O)NCc1cc(Cl)ccc1CN)C1CCOCC1 [Compound 2.4] |

Target: T5, Human Activated Protein C (h aPC) (Homo sapiens, UniProt P04070)
T5 construct: purchased Enzyme Research Laboratories
T5 sequence (P04070 212-450 limits assumed): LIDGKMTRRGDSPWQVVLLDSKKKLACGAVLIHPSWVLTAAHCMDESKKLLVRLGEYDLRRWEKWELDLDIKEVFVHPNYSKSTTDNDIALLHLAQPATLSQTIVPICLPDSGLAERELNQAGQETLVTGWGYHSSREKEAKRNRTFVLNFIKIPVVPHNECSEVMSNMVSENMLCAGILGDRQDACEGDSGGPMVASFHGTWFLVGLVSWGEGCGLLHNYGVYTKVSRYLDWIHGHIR
T5 sequence (P04070 43-197 partner limits assumed): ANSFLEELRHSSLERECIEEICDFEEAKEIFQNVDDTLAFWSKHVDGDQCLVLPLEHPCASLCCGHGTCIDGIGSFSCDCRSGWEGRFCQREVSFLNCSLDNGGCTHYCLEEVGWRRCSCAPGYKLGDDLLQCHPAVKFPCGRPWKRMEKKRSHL
Experiment: Inhibition of human activated protein C (reference enzyme)
Format: biochemical
Details: Pefachrome PCa substrate
Protocol: as §1, §2, §3

| Ki | SMILES |
| --- | --- |
| > 100 µM | CN1CCN(C(=O)C[C@@H](NS(=O)(=O)Cc2ccccc2)C(=O)N2CCC[C@H]2C(=O)NCc2cc(Cl)ccc2CN)CC1 [Compound 2.18] |
| > 10 µM | CN(C(=O)C[C@@H](NS(=O)(=O)Cc1ccccc1)C(=O)N1CCC[C@H]1C(=O)NCc1cc(Cl)ccc1CN)C1CCOCC1 [Compound 2.4] |

Target: T6, human Factor Xa (Homo sapiens, UniProt P00742)
T6 construct: human Factor Xa from Enzyme Research Laboratories; purchased Enzyme Research Laboratories
T6 sequence (P00742 235-488 limits assumed): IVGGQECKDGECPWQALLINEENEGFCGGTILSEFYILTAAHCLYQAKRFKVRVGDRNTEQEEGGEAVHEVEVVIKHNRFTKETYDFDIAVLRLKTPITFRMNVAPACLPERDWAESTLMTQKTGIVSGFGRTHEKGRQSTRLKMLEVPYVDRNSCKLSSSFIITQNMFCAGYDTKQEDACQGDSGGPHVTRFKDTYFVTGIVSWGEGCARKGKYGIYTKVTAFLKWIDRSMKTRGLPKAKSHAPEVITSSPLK
T6 sequence (P00742 41-179 partner limits assumed): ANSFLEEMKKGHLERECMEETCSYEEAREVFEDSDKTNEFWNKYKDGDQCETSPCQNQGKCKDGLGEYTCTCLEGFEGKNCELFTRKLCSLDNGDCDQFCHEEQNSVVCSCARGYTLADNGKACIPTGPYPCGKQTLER
Experiment: Inhibition constants for human factor Xa, chromogenic substrate assay
Format: biochemical
Details: 25° C., Pefachrome FXa substrate, average of at least three determinations; read-out: Ki h FXa
Protocol: as §1, §4, §2

| Ki | SMILES |
| --- | --- |
| 0.0079 µM | CN1CCN(C(=O)C[C@@H](NS(=O)(=O)Cc2ccccc2)C(=O)N2CCC[C@H]2C(=O)NCc2cc(Cl)ccc2CN)CC1 [Compound 2.18] |
| 0.0013 µM | CN(C(=O)C[C@@H](NS(=O)(=O)Cc1ccccc1)C(=O)N1CCC[C@H]1C(=O)NCc1cc(Cl)ccc1CN)C1CCOCC1 [Compound 2.4] |

Target: T7, Subcomponent "r" of Human Complement Component 1 (h C1r) (Homo sapiens, UniProt P00736)
T7 construct: purchased Calbiochem
T7 sequence (P00736 464-705 limits assumed): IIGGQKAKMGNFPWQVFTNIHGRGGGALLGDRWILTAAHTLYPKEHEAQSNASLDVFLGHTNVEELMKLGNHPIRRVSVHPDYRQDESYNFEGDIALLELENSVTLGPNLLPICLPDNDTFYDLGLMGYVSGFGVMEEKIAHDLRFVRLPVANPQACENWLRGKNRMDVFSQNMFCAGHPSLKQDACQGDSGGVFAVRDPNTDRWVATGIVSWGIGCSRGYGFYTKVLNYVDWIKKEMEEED
T7 sequence (P00736 18-463 partner limits assumed): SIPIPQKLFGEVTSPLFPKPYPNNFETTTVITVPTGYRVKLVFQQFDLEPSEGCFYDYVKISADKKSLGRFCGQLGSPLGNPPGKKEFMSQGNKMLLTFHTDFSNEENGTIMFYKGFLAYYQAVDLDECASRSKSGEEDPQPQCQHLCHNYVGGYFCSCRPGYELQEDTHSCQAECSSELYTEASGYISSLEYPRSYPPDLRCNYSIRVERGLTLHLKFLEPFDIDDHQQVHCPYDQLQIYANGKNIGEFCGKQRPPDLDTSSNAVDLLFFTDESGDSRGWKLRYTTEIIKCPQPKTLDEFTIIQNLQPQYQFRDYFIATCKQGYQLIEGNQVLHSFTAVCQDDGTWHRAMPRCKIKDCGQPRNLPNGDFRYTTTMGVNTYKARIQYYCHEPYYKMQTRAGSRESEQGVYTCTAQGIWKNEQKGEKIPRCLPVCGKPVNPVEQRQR
Experiment: Inhibition of human C1r (reference enzyme)
Format: biochemical
Details: S-2314 substrate; read-out: Ki h Clr
Protocol: as §1, §2, §3

| Ki | SMILES |
| --- | --- |
| > 25 µM | CN1CCN(C(=O)C[C@@H](NS(=O)(=O)Cc2ccccc2)C(=O)N2CCC[C@H]2C(=O)NCc2cc(Cl)ccc2CN)CC1 [Compound 2.18] |
| > 10 µM | CN(C(=O)C[C@@H](NS(=O)(=O)Cc1ccccc1)C(=O)N1CCC[C@H]1C(=O)NCc1cc(Cl)ccc1CN)C1CCOCC1 [Compound 2.4] |

Target: T8, Subcomponent "s" of Human Complement Component 1 (h C1s) (Homo sapiens, UniProt P09871)
T8 construct: purchased Calbiochem
T8 sequence (P09871 438-688 limits assumed): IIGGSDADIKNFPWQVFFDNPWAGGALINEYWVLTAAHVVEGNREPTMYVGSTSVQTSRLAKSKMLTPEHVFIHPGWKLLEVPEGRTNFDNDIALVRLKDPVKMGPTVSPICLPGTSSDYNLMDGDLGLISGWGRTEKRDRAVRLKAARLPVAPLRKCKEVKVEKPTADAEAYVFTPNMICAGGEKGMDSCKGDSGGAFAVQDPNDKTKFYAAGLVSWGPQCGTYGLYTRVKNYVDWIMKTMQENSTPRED
T8 sequence (P09871 16-437 partner limits assumed): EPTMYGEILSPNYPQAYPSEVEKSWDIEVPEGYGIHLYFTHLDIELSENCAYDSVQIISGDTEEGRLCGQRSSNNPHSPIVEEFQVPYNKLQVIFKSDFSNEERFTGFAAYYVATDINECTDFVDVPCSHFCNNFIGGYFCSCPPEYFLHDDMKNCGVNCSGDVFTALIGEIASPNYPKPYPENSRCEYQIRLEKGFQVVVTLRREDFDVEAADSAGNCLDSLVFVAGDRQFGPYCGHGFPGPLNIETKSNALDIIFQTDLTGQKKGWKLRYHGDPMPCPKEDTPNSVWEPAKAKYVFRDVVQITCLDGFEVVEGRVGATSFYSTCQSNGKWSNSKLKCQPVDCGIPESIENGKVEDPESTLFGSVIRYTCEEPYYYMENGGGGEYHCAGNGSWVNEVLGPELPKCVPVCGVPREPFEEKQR
Experiment: Inhibition of human C1s (reference enzyme)
Format: biochemical
Details: S-2314 substrate; read-out: Ki h Cls
Protocol: as §1, §2, §3

| Ki | SMILES |
| --- | --- |
| > 50 µM | CN1CCN(C(=O)C[C@@H](NS(=O)(=O)Cc2ccccc2)C(=O)N2CCC[C@H]2C(=O)NCc2cc(Cl)ccc2CN)CC1 [Compound 2.18] |
| > 25 µM | CN(C(=O)C[C@@H](NS(=O)(=O)Cc1ccccc1)C(=O)N1CCC[C@H]1C(=O)NCc1cc(Cl)ccc1CN)C1CCOCC1 [Compound 2.4] |

Target: T9, Human urokinase type plasminogen activator (h u-PA) (Homo sapiens, UniProt P00749)
T9 construct: purchased MEDAC GmbH Urokinase HS medac
Experiment: Inhibition of human urokinase type plasminogen activator (reference enzyme)
Format: biochemical
Details: H-Glu-Gly-Arg-pNA substrate
Protocol: as §1, §2, §3

| Ki | SMILES |
| --- | --- |
| > 100 µM | CN1CCN(C(=O)C[C@@H](NS(=O)(=O)Cc2ccccc2)C(=O)N2CCC[C@H]2C(=O)NCc2cc(Cl)ccc2CN)CC1 [Compound 2.18] |
| > 40 µM | CN(C(=O)C[C@@H](NS(=O)(=O)Cc1ccccc1)C(=O)N1CCC[C@H]1C(=O)NCc1cc(Cl)ccc1CN)C1CCOCC1 [Compound 2.4] |

Target: T10, Human urinary kallikrein (h uKK) (Homo sapiens, UniProt P06870)
T10 construct: purchased Lee Biosolutions
T10 sequence (P06870 25-262): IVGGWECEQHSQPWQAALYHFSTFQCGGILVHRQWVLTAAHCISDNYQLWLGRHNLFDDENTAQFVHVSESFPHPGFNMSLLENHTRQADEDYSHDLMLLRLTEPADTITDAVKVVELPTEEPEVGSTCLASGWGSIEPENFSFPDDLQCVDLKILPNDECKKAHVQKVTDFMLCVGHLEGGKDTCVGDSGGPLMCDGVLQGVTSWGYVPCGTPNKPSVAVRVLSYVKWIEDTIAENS
Experiment: Inhibition of human urinary kallikrein (reference enzyme)
Format: biochemical
Details: S-2266 substrate
Protocol: as §1, §2, §3

| Ki | SMILES |
| --- | --- |
| > 20 µM | CN1CCN(C(=O)C[C@@H](NS(=O)(=O)Cc2ccccc2)C(=O)N2CCC[C@H]2C(=O)NCc2cc(Cl)ccc2CN)CC1 [Compound 2.18] |
| > 50 µM | CN(C(=O)C[C@@H](NS(=O)(=O)Cc1ccccc1)C(=O)N1CCC[C@H]1C(=O)NCc1cc(Cl)ccc1CN)C1CCOCC1 [Compound 2.4] |
